Data taken from publication PMC10052035, “Virtual Screening, Structural Analysis, and Formation Thermodynamics of Carbamazepine Cocrystals” (Pharmaceutics, 2023).
≈ marks a conversion by molar mass, not a printed value. Where two headings read alike, the source gives them in different places.

Tests used:
[1] = cited from earlier work
[2] = cited from earlier work; remark: listed apart in the source
[3] = format: physicochemical; conditions: acidic conditions (pH 2.0), 310.2 K
Experimental: The saturation shake-flask method was used to measure the aqueous solubility of the CBZ cocrystals in a pH 2.0 buffer solution at the eutectic point, where drug and cocrystal are in equilibrium with the solution. The eutectic point between the cocrystal and the drug was reached by suspending 80 mg of the cocrystal and 30 mg of CBZ in 2 mL of the buffer solution. The obtained suspension was stirred continuously for 72 h at 37.0 ± 0.1 °C. After equilibration, the final pH of the solution was measured. The suspension was diluted with the mobile phase after being filtered through a […] PTEF filter. Concentrations of compounds were analyzed by HPLC. The solid phases after the experiment were characterized by PXRD.
The column temperature was set to 40 °C.

[4] = Solubility of cocrystals and their constituents in organic solvents (shake-flask, HPLC); conditions: for solubility at 48 h: organic solvent or mixture, thermodynamic from solid; for Cp∙10^2, solubility of pure component: 293.15 K, value is C∙10^2
Experimental: For the [CBZ + 3AcAmBA] (1:1) cocrystal, methanol was used. For [CBZ + 4AcAmBA] (1:1), all the experiments were performed in acetonitrile. An excess of the solid was placed in an Eppendorf tube, and 2 mL of solvent was added. The resulting suspension was shaken in a ThermoMixer C (Eppendorf, Hamburg, Germany) at 800 rpm for 48 h at the specified temperature. Subsequently, the saturated solution was separated using a 0.22 μm PTEF filter, diluted, and analyzed using HPLC. The solid phases after the experiment were collected and characterized by PXRD. Each experiment was repeated three times.
The HPLC was performed on an LC-20 AD Shimadzu Prominence model (Shimadzu, Kyoto, Japan) equipped with a PDA detector and a Luna C-18 column (150 mm × 4.6 mm i.d., 5 μm particle size, and 100 Å pore size). The column temperature was set to 40 °C. To achieve the proper separation of the cocrystal components, different ratios of the mobile phase, consisting of acetonitrile and a 0.1% aqueous solution of trifluoroacetic acid (35:65 v/v), were used. The flow rate was 1.0 mL·min^−1, and the injection volume was 20 μL. The UV detection of carbamazepine, 2-acetamidobenzoic acid, 3-acetamidobenzoic acid, and 4-acetamidobenzoic acid was carried out at the wavelengths of 285 nm, 249 nm, 220 nm, and 266 nm, respectively.

NC(=O)N1c2ccccc2C=Cc2ccccc21.NC(=O)c1ccc(O)cc1 [[CBZ + 4-Hydroxybenzamide] (1:1)]
TΔformS ([1]; 298 K, ref [22]): -1.36 ± 0.12 kcal/mol | ΔformG ([1]; 298 K, ref [22]): -1.6 ± 0.12 kcal/mol | ΔformH ([1]; 298 K, ref [22]): -2.96 ± 0.22 kcal/mol

O=C(NN=Cc1ccccc1O)c1ccncc1.O=C1NS(=O)(=O)c2ccccc21 [[Salinazid + Saccharin] (1:1)]
TΔformS ([1]; 298 K, ref [13]): -2.65 ± 0.382 kcal/mol | ΔformG ([1]; 298 K, ref [13]): -1.74 ± 0.14 kcal/mol | ΔformH ([1]; 298 K, ref [13]): -4.4 ± 0.239 kcal/mol

O=C(O)CCCC(=O)O [Glutaric acid]
log(S0), intrinsic solubility ([2]; 2-propanol, ref [10]): 0.56 mol⋅L-1 | log(S0), intrinsic solubility ([2]; Ethanol, ref [10]): 0.45 mol⋅L-1 | log(S0), intrinsic solubility ([2]; Ethyl acetate, ref [10]): 0 mol⋅L-1

NC(=O)c1ccccc1N.O=C1CN(N=Cc2ccc([N+](=O)[O-])o2)C(=O)N1
TΔformS ([1]; 298 K, ref [19]): 0.311 ± 0.263 kcal/mol | ΔformG ([1]; 298 K, ref [19]): -1.08 ± 0.12 kcal/mol | ΔformH ([1]; 298 K, ref [19]): -0.789 ± 0.19 kcal/mol | TΔformS ([1]; 298 K, ref [19], listed as 13): ≈ 0 kJ·mol-1

NC(=O)c1cnccn1.Nc1ccc(C(=O)O)cc1
TΔformS ([1]; 298 K, ref [14]): -8.01 ± 0.765 kcal/mol | ΔformG ([1]; 298 K, ref [14]): -1.46 ± 0.072 kcal/mol | ΔformH ([1]; 298 K, ref [14]): -9.46 ± 0.693 kcal/mol

NC(=O)N1c2ccccc2C=Cc2ccccc21.O [carbamazepine hydrate, reference compound]
solubility [3]: (8.30 ± 0.02)·10^−4 mol·l^−1

CC(O)Cc1nsc(Nc2cccc(Cl)c2)n1.COc1cc(C(=O)O)ccc1O (centres unmarked) [[XIa+Vanillic acid] (1:1)]
TΔformS ([1]; 298 K, ref [12]): -1.24 ± 0.311 kcal/mol | ΔformG ([1]; 298 K, ref [12]): -1.27 ± 0.096 kcal/mol | ΔformH ([1]; 298 K, ref [12]): -2.51 ± 0.22 kcal/mol

NCC(=O)O.O=C(O)/C=C\C(=O)O [[Glycine + Maleic acid] (1:1)]
TΔformS ([1]; 298 K, ref [17]): -1.36 ± 0.239 kcal/mol | ΔformG ([1]; 298 K, ref [17]): -1.29 ± 0.096 kcal/mol | ΔformH ([1]; 298 K, ref [17]): -2.65 ± 0.22 kcal/mol

Cc1cc(O)c2c(c1)C(=O)c1cc(O)cc(O)c1C2=O [Emodin]
log(S0), intrinsic solubility ([2]; 2-propanol, ref [6]): -1.68 mol⋅L-1 | log(S0), intrinsic solubility ([2]; Acetone, ref [6]): -1.29 mol⋅L-1 | log(S0), intrinsic solubility ([2]; Ethanol, ref [6]): -1.74 mol⋅L-1 | log(S0), intrinsic solubility ([2]; Ethyl acetate, ref [6]): -1.43 mol⋅L-1

CNC(=O)c1cc(Oc2ccc(NC(=O)Nc3ccc(Cl)c(C(F)(F)F)c3)cc2)ccn1.O=c1[nH]cc(F)c(=O)[nH]1 [[Sorafenib + 5-fluorouracil] (1:1)]
TΔformS ([1]; 303 K, ref [18]): 0.0048 ± 0.024 kcal/mol | ΔformG ([1]; 303 K, ref [18]): -1.14 ± 0.022 kcal/mol | ΔformH ([1]; 303 K, ref [18]): -1.14 ± 0.017 kcal/mol | TΔformS ([1]; 303 K, ref [18], listed as 11): ≈ 0 kJ·mol-1

NC(=O)c1ccccc1O.O=C1CN(N=Cc2ccc([N+](=O)[O-])o2)C(=O)N1 [[Nitrofurantoin + Salicylamide] (1:1)]
TΔformS ([1]; 298 K, ref [19]): 0.072 ± 0.17 kcal/mol | ΔformG ([1]; 298 K, ref [19]): -0.14 ± 0.096 kcal/mol | ΔformH ([1]; 298 K, ref [19]): -0.072 ± 0.14 kcal/mol | TΔformS ([1]; 298 K, ref [19], listed as 14): ≈ 0 kJ·mol-1

NC(=O)c1ccncc1.O=C1CN(N=Cc2ccc([N+](=O)[O-])o2)C(=O)N1 [[Nitrofurantoin + Isonicotinamide] (1:1)]
TΔformS ([1]; 298 K, ref [19]): 1.43 ± 0.17 kcal/mol | ΔformG ([1]; 298 K, ref [19]): -1.12 ± 0.096 kcal/mol | ΔformH ([1]; 298 K, ref [19]): 0.311 ± 0.14 kcal/mol

COc1ccc(C(C)=O)c(O)c1 [Paeonol]
log(S0), intrinsic solubility ([2]; 2-propanol, ref [6]): -0.12 mol⋅L-1 | log(S0), intrinsic solubility ([2]; Ethanol, ref [6]): 0.08 mol⋅L-1 | log(S0), intrinsic solubility ([2]; Methanol, ref [6]): 0.22 mol⋅L-1

NC(=O)N1c2ccccc2C=Cc2ccccc21.NC(=O)c1ccccc1 [[CBZ + Benzamide] (1:1)]
TΔformS ([1]; 298 K, ref [22]): 7.29 ± 0.693 kcal/mol | ΔformG ([1]; 298 K, ref [22]): -1.15 ± 0.072 kcal/mol | ΔformH ([1]; 298 K, ref [22]): 6.14 ± 0.454 kcal/mol

CC(O)(CS(=O)(=O)c1ccc(F)cc1)C(=O)Nc1ccc(C#N)c(C(F)(F)F)c1.NC(=O)c1ccccc1 (centres unmarked) [[Bicalutamide + Benzamide] (1:1)]
TΔformS ([1]; 298 K, ref [11]): -3.87 ± 0.263 kcal/mol | ΔformG ([1]; 298 K, ref [11]): -0.813 ± 0.072 kcal/mol | ΔformH ([1]; 298 K, ref [11]): -4.68 ± 0.19 kcal/mol

NC(=O)c1ccccn1.O=C1CN(N=Cc2ccc([N+](=O)[O-])o2)C(=O)N1 [[Nitrofurantoin + Picolinamide] (1:1)]
TΔformS ([1]; 298 K, ref [19]): 0.14 ± 0.19 kcal/mol | ΔformG ([1]; 298 K, ref [19]): -1.17 ± 0.12 kcal/mol | ΔformH ([1]; 298 K, ref [19]): -1.05 ± 0.17 kcal/mol | TΔformS ([1]; 298 K, ref [19], listed as 12): ≈ 0 kJ·mol-1

NC(=O)c1cccnc1 [Nicotinamide]
log(S0), intrinsic solubility ([2]; 2-propanol, ref [10]): -0.2 mol⋅L-1 | log(S0), intrinsic solubility ([2]; Ethanol, ref [10]): 0.04 mol⋅L-1 | log(S0), intrinsic solubility ([2]; Ethyl acetate, ref [10]): -0.96 mol⋅L-1

NC(=O)N1c2ccccc2C=Cc2ccccc21.NC(=O)c1ccncc1 [[CBZ + isonicotinamide] (1:1)]
TΔformS ([1]; 298 K, ref [22]): 5.26 ± 0.598 kcal/mol | ΔformG ([1]; 298 K, ref [22]): -0.502 ± 0.024 kcal/mol | ΔformH ([1]; 298 K, ref [22]): 4.76 ± 0.454 kcal/mol

CC(O)(CS(=O)(=O)c1ccc(F)cc1)C(=O)Nc1ccc(C#N)c(C(F)(F)F)c1.NC(=O)c1ccccc1O (centres unmarked) [[Bicalutamide + Salicylamide] (1:1)]
TΔformS ([1]; 298 K, ref [11]): -2.2 ± 0.19 kcal/mol | ΔformG ([1]; 298 K, ref [11]): -0.526 ± 0.072 kcal/mol | ΔformH ([1]; 298 K, ref [11]): -2.72 ± 0.12 kcal/mol

NCC(=O)O.NCC(=O)O.O=C(O)/C=C/C(=O)O [[Glycine + Fu maric acid] (2:1)]
TΔformS ([1]; 298 K, ref [17]): -0.335 ± 0.14 kcal/mol | ΔformG ([1]; 298 K, ref [17]): -1.05 ± 0.072 kcal/mol | ΔformH ([1]; 298 K, ref [17]): -1.39 ± 0.12 kcal/mol

COc1cc(C=NNC(=O)c2ccncc2)ccc1O.O=C1NS(=O)(=O)c2ccccc21 [[Vanillin isoniazid + Saccharin] (1:1)]
TΔformS ([1]; 298 K, ref [13]): -1.05 ± 0.454 kcal/mol | ΔformG ([1]; 298 K, ref [13]): -2.17 ± 0.19 kcal/mol | ΔformH ([1]; 298 K, ref [13]): -3.23 ± 0.263 kcal/mol

Cc1ccc(-c2cc(C(F)(F)F)nn2-c2ccc(S(N)(=O)=O)cc2)cc1.NC(=O)c1cccnc1 [[Celecoxib + Nicotinamide] (1:1)]
TΔformS ([1]; 298 K, ref [20]): 1.65 ± 0.478 kcal/mol | ΔformG ([1]; 298 K, ref [20]): -0.0837 ± 0.012 kcal/mol | ΔformH ([1]; 298 K, ref [20]): 1.55 ± 0.359 kcal/mol

NC(=O)N1c2ccccc2C=Cc2ccccc21.O=C1NS(=O)(=O)c2ccccc21 [[CBZ + Saccharin] (1:1)]
TΔformS ([1]; 306 K, ref [15]): -0.311 kcal/mol | ΔformG ([1]; 306 K, ref [15]): -1.1 kcal/mol | ΔformH ([1]; 306 K, ref [15]): -1.41 ± 0.22 kcal/mol

NC(=O)N1c2ccccc2C=Cc2ccccc21 [CBZ, carbamazepine]
solubility at 48 h ([4]; acetonitrile, 20 °C): 142 ± 3 mM (≈ 33.6 mg/mL) | solubility at 48 h ([4]; acetonitrile, 25 °C): 162 ± 4 mM (≈ 38.3 mg/mL) | solubility at 48 h ([4]; acetonitrile, 30 °C): 191 ± 4 mM (≈ 45.1 mg/mL) | solubility at 48 h ([4]; acetonitrile, 35 °C): 222 ± 3 mM (≈ 52.5 mg/mL) | solubility at 48 h ([4]; acetonitrile, 40 °C): 250 ± 4 mM (≈ 59.1 mg/mL) | Cp∙10^2, solubility of pure component ([4]; acetonitrile): 14.2±0.3 mol/l | solubility at 48 h ([4]; methanol, 20 °C): 220 ± 2 mM (≈ 52 mg/mL) | solubility at 48 h ([4]; methanol, 25 °C): 248 ± 2 mM (≈ 58.6 mg/mL) | solubility at 48 h ([4]; methanol, 30 °C): 285 ± 2 mM (≈ 67.3 mg/mL) | solubility at 48 h ([4]; methanol, 35 °C): 323 ± 3 mM (≈ 76.3 mg/mL) | solubility at 48 h ([4]; methanol, 40 °C): 356 ± 1 mM (≈ 84.1 mg/mL) | Cp∙10^2, solubility of pure component ([4]; methanol): 22.0±0.2 mol/l | log(S0), intrinsic solubility ([2]; 2-propanol, ref [6]): -1.36 mol⋅L-1 | log(S0), intrinsic solubility ([2]; 2-propanol, ref [10]): -1.3 mol⋅L-1 | log(S0), intrinsic solubility ([2]; Acetone, ref [6]): -1.27 mol⋅L-1 | log(S0), intrinsic solubility ([2]; Ethanol, ref [6]): -0.97 mol⋅L-1 | log(S0), intrinsic solubility ([2]; Ethanol, ref [10]): -0.85 mol⋅L-1 | log(S0), intrinsic solubility ([2]; Ethyl acetate, ref [6]): -1.32 mol⋅L-1 | log(S0), intrinsic solubility ([2]; Ethyl acetate, ref [10]): -1.31 mol⋅L-1 | log(S0), intrinsic solubility ([2]; Methanol, ref [6]): -0.49 mol⋅L-1

Cc1cc(C)nc(NS(=O)(=O)c2ccc(N)cc2)n1.O=C(O)c1ccccc1O [[Sulfamethazine + salicylic acid] (1:1)]
TΔformS ([1]; 293 K, ref [21]): 7.1 kcal/mol | ΔformG ([1]; 293 K, ref [21]): -1.7 kcal/mol | ΔformH ([1]; 293 K, ref [21]): 5.52 kcal/mol
